# Laboratory results reported in patent US20030078274A1, “Method of reducing neuronal injury or apoptosis” (priority 1999, published 2003).
# Legend:
# [1] = test system: neurons in rat cerebrocortical cultures (SDF-1-induced apoptosis); test: SDF-1-induced neuronal apoptosis in rat cerebrocortical cultures; type: cell-based, Sprague-Dawley rats; conditions: p38 MAPK inhibition by SB 203580, FIG. 4(B)
# Procedure: The model used in the assays described below, i.e., rat cerebrocortical cultures, was prepared from embryos of Sprague-Dawley rats at day 15 to 17 of gestation. See Lei et al., Neuron 8:1087-1099 (1992) and Lipton et al., Nature 364:626-632 (1993). Cultures were used for experiments after 17 to 24 days in culture. These cultures contain neurons, astrocytes, and macrophages/microglia, as determined with specific immunolabeling. Prior to some experiments, macrophages/microglia or neurons were depleted from the cultures by exposure to 7.5 mM L-leucine methyl ester or 2 mM N-methyl-D-aspartate (NMDA), respectively. See Lipton, NeuroReport 3:913-915 (1992). Absence of macrophages/microglia or neurons in these cultures was confirmed immunocytochemically, using antibodies to ED-1 and microtubule-associated protein-2 (MAP-2), respectively. In some experiments, the Griess reaction was used to measure nitrite levels in the culture medium as an index of nitric oxide (NO) release. See Chao et al., Glia 16:276-284 (1996). […]
# Neuronal apoptosis in the above-described assays was assessed using a variety of techniques, e.g., staining of permeabilized cells with propidium iodide to determine apoptotic morphology, and a neuron-specific antibody (against NeuN or MAP-2) to identify cell type. […]
# cultured RGCs = test: NMDA-induced apoptosis in cultured RGCs; type: cell-based, Long-Evans rats; conditions: 1 μM; 300 μM NMDA/5 μM glycine for 18 hr
# Procedure: Retinal cell cultures. Retinal cells were prepared from 6-10 day old Long-Evans rats as described in Leifer et al., Science 224:303-306 (1984). Briefly, following dissociation in papain, retinal cells were plated on poly-L-lysine-coated glass coverslips in Eagle's minimum essential medium. RGCs were identified by immunocytochemical staining using an anti-Thy-1 antibody (2G12), which is specific among rat retinal cells for the ganglion cells.
# Assessment of NMDA-induced apoptosis in cultured RGCs. To induce predominantly apoptosis (See Bonfoco et al., Proc. Natl. Acad. Sci. USA 92:7162-7166 (1995); Dreyer et al., Neuroreport 6:942-944 (1995)), retinal cell cultures were exposed to 300 μM NMDA/5 μM glycine for 18 hr in high calcium (3 mM) medium. For specific labeling of RGCs, the cultures were incubated with anti-Thy-1 antibody for 1 hr. Following 3 washes with PBS, cells were incubated in goat-anti-mouse-IgG-FITC for 1 hr. For assessment of apoptosis, retinal cells were fixed, permeabilized and stained with 20 μg/ml propidium iodide for 5 min, as described in Ankarcrona et al., Neuron 15:961-973 (1995). Briefly, coverslips containing the cells were washed once with PBS and permeabilized with 85% methanol for 10 min. […] Apoptotic nuclei were scored in cells that were also stained by anti-Thy-1, and expressed as a fraction of total RGCs.
structure (smiles),measurement,setting,value
"C[S+]([O-])c1ccc(-c2nc(-c3ccc(F)cc3)c(-c3ccncc3)[nH]2)cc1 (centres unmarked) [SB 203580, 4-(4-fluorophenyl)-2-(4-methylsulfinylphenyl)-5-(4-pyridyl)-1H-imidazole]",effect on SDF-1 neurotoxicity (SDF-1β-induced neuronal apoptosis),[1],ameliorated
same,survival of RGCs in the face of NMDA exposure,cultured RGCs,significantly increased
